Values after ≈ are worked out from the molar mass of the structure shown.

Here are results for 6 compounds from patent publication US20260226060A1, “SALTS AND CRYSTALLINE FORMS OF COMPOUND A, METHODS OF PREPARATION, AND USES THEREOF” (SHENZHEN NEWDEL BIOTECH CO., LTD., priority 2023, published 2026).

Format in all cases: physicochemical
Data set [1] is described as follows: Short-term physical stability of anhydrous crystal forms (40° C./75% RH, open, 1 day; XRPD). The source says: In addition to the mesylate crystalline form I, the other anhydrous crystalline forms were stable under high humidity conditions.
The nature of data set [2]: Solubility analysis in biological solvents (SGF, FaSSIF, FeSSIF) and water, with pH and XRPD of residual solid. The procedure:
(§1) HPLC analysis was performed by using an Agilent HPLC 1260 series instrument and the HPLC methods used for solubility and stability determinations were shown in Tables 33 and 34, respectively.

Data set [3] is described as follows: Dynamic vapor sorption (DVS) hygroscopicity. The procedure: The water vapor sorption/desorption data of the samples were collected on a dynamic vapor sorption instrument (proUmid GmbH & Co. KG, Germany). Approximately 50-70 mg of sample was placed in a sample pan previously tared and the weight of the sample was measured accurately.
Data set [4] in a line: Solid state stability at 60° C. (closed) and 40° C./75% RH (open), XRPD and HPLC purity. The procedure: (closed) and 40° C./75 RH (open) for 14 days, XRPD analysis and purity analysis were performed at various points of time, and solid-state stability was evaluated.
as §1

A short description of data set [5]: Rough solubility of free base starting material, visually evaluated by solvent addition. The source says:
The rough solubility test of free base of compound A was visually evaluated by solvent addition, and the results were summarized in Table 1.

As for `Cc1c(C#Cc2cnc3ccc(N4CCC(O)CC4)nn23)cccc1C(=O)Nc1cc(Cl)cc(C(F)(F)F)c1` [Besylate crystalline form I], the “XPRD Results after short-term physical stability” value (from here on “XPRD Results”) in data set [1] was “unchanged”.

For `Cc1c(C#Cc2cnc3ccc(N4CCC(O)CC4)nn23)cccc1C(=O)Nc1cc(Cl)cc(C(F)(F)F)c1` [Compound A, N-(3-chloro-5-(trifluoromethyl)phenyl)-3-((6-(4-hydroxypiperidin-1-yl)imidazo [1,2-b]pyridazin-3-yl)ethynyl)-2-methylbenzamide], the Solubility in data set [2] (FeSSIF, 37 °C, pH 5, fessif, thermodynamic from solid, FeSSIF, read-out: solubility) was 200 to 1900 µg/mL (≈ 0.361 to 3.43 mM); in data set [2] (SGF and water), “< LOD”.

On to `Cc1c(C#Cc2cnc3ccc(N4CCC(O)CC4)nn23)cccc1C(=O)Nc1cc(Cl)cc(C(F)(F)F)c1` [Free base crystalline form I], for which the “pH in solubility analysis” value in data set [2] (FaSSIF (medium pH 6.5), 0.5 h) is 6.4; in data set [2] (FaSSIF (medium pH 6.5), 2 h), 6.3; in data set [2] (FaSSIF (medium pH 6.5), 24 h), 6.4; in data set [2] (FeSSIF (medium pH 5.0), 0.5 h), 5.0; in data set [2] (FeSSIF (medium pH 5.0), 2 h), 5.0; in data set [2] (FeSSIF (medium pH 5.0), 24 h), 5.1. For the same compound, the “pH in solubility analysis” value in data set [2] (SGF (medium pH 1.2), 0.5 h) worked out at 1.3; in data set [2] (SGF (medium pH 1.2), 2 h), 1.4; in data set [2] (SGF (medium pH 1.2), 24 h), 1.2; in data set [2] (water (medium pH 6.6), 0.5 h) it was 6.6; in data set [2] (water (medium pH 6.6), 2 h) it was 6.5; in data set [2] (water (medium pH 6.6), 24 h) it was 6.4. Also, the “XRPD of residual solid in solubility analysis” value in data set [2] (FaSSIF, 0.5 h) was “unchanged”; in data set [2] (FaSSIF, 24 h), “unchanged”; in data set [2] (FeSSIF, 0.5 h) it was “unchanged”; in data set [2] (FeSSIF, 24 h) it was “unchanged”; in data set [2] (SGF, 0.5 h), “unchanged”; in data set [2] (SGF, after 2 h), “amorphous”. The Solubility in data set [2] (FaSSIF, 0.5 h, 37° C., target 5 mg/mL) came out at 14 µg/mL (≈ 0.0253 mM); in data set [2] (FaSSIF, 0.5 h, 37° C., target 5 mg/mL, listed as free base crystalline form I), 14 µg/mL (≈ 0.0253 mM); in data set [2] (FaSSIF, 2 h, 37° C., target 5 mg/mL), 13 µg/mL (≈ 0.0235 mM); in data set [2] (FaSSIF, 2 h, 37° C., target 5 mg/mL, listed as free base crystalline form I), 13 µg/mL (≈ 0.0235 mM); in data set [2] (FaSSIF, 24 h, 37° C., target 5 mg/mL) it was 11 µg/mL (≈ 0.0199 mM); in data set [2] (FeSSIF, 0.5 h, 37° C., target 5 mg/mL), 181 µg/mL (≈ 0.327 mM). Moreover, the Solubility in data set [2] (FeSSIF, 0.5 h, 37° C., target 5 mg/mL, listed as free base crystalline form I) was 181 µg/mL (≈ 0.327 mM); in data set [2] (FeSSIF, 2 h, 37° C., target 5 mg/mL) it was 221 µg/mL (≈ 0.399 mM); in data set [2] (FeSSIF, 2 h, 37° C., target 5 mg/mL, listed as free base crystalline form I), 221 µg/mL (≈ 0.399 mM); in data set [2] (FeSSIF, 24 h, 37° C., target 5 mg/mL), 418 µg/mL (≈ 0.755 mM); in data set [2] (SGF, 0.5 h, 37° C., target 5 mg/mL) it was “<LOD”; in data set [2] (SGF, 0.5 h, 37° C., target 5 mg/mL, listed as free base crystalline form I) it was “<LOD/<LOD/”. For the same compound, the Solubility result is listed as “<LOD” in data set [2] (SGF, 2 h, 37° C., target 5 mg/mL); “<LOD/<LOD/” in data set [2] (SGF, 2 h, 37° C., target 5 mg/mL, listed as free base crystalline form I); “<LOD” in data set [2] (SGF, 24 h, 37° C., target 5 mg/mL); “<LOD/<LOD/” in data set [2] (water, 0.5 h, 37° C., target 5 mg/mL); “<LOD/<LOD/” in data set [2] (water, 2 h, 37° C., target 5 mg/mL); “<LOD” in data set [2] (water, 24 h, 37° C., target 5 mg/mL). For the same compound, the Solubility in data set [5] (2-methyltetrahydrofuran, organic solvent or mixture, thermodynamic from solid, 2-methyltetrahydrofuran, read-out: Solubility) was above 50000 µg/mL; in data set [5] (2-methyltetrahydrofuran, listed as starting material) it was 50000 to 100000 µg/mL; in data set [5] (acetone, organic solvent or mixture, thermodynamic from solid, acetone, read-out: Solubility) it was 20000 to 50000 µg/mL (≈ 36.1 to 90.3 mM); in data set [5] (acetonitrile, organic solvent or mixture, thermodynamic from solid, acetonitrile, read-out: Solubility), 1000 to 5000 µg/mL (≈ 1.81 to 9.03 mM); in data set [5] (acetonitrile/water, 19/1 (v/v), organic solvent or mixture, thermodynamic from solid, acetonitrile/water, 19/1 (v/v), read-out: Solubility), 3000 to 5000 µg/mL (≈ 5.42 to 9.03 mM); in data set [5] (butanone, organic solvent or mixture, thermodynamic from solid, butanone, read-out: Solubility), above 50000 µg/mL. Further, the Solubility in data set [5] (butanone, listed as starting material) lay within 50000 to 100000 µg/mL; in data set [5] (dichloromethane, organic solvent or mixture, thermodynamic from solid, dichloromethane, read-out: Solubility), 3000 to 5000 µg/mL (≈ 5.42 to 9.03 mM); in data set [5] (ethanol, organic solvent or mixture, thermodynamic from solid, ethanol, read-out: Solubility), 5000 to 20000 µg/mL (≈ 9.03 to 36.1 mM); in data set [5] (ethyl acetate, organic solvent or mixture, thermodynamic from solid, ethyl acetate, read-out: Solubility), 5000 to 20000 µg/mL (≈ 9.03 to 36.1 mM); in data set [5] (isopropanol, organic solvent or mixture, thermodynamic from solid, isopropanol, read-out: Solubility), 20000 to 50000 µg/mL (≈ 36.1 to 90.3 mM); in data set [5] (isopropyl acetate, organic solvent or mixture, thermodynamic from solid, isopropyl acetate, read-out: Solubility), 5000 to 20000 µg/mL (≈ 9.03 to 36.1 mM). Besides, the Solubility in data set [5] (methanol, organic solvent or mixture, thermodynamic from solid, methanol, read-out: Solubility) was 3000 to 5000 µg/mL (≈ 5.42 to 9.03 mM); in data set [5] (methyl isobutyl ketone, organic solvent or mixture, thermodynamic from solid, methyl isobutyl ketone, read-out: Solubility), 5000 to 20000 µg/mL (≈ 9.03 to 36.1 mM); in data set [5] (methyl tert-butyl ether, organic solvent or mixture, thermodynamic from solid, methyl tert-butyl ether, read-out: Solubility), 2000 to 5000 µg/mL (≈ 3.61 to 9.03 mM); in data set [5] (n-heptane, organic solvent or mixture, thermodynamic from solid, n-heptane, read-out: Solubility), below 1000 µg/mL; in data set [5] (n-heptane, listed as starting material), below 1000 µg/mL; in data set [5] (tetrahydrofuran, organic solvent or mixture, thermodynamic from solid, tetrahydrofuran, read-out: Solubility), above 50000 µg/mL. In addition, the Solubility is above 100000 µg/mL in data set [5] (tetrahydrofuran, listed as starting material); below 1000 µg/mL in data set [5] (toluene, organic solvent or mixture, thermodynamic from solid, toluene, read-out: Solubility); below 1000 µg/mL in data set [5] (toluene, listed as starting material); below 1000 µg/mL in data set [5] (water, thermodynamic from solid, water, read-out: Solubility); below 1000 µg/mL in data set [5] (water, listed as starting material). Further, the “Solid form of residual solids in solubility analysis” value in data set [2] (summary over water, SGF, FaSSIF, FeSSIF) is “remained unchanged in water, FaSSIF and FeSSIF”. In data set [3], the “crystalline form after DVS analysis (XRPD)” value was “remained unchanged”. Also, in data set [3], the “hygroscopicity (DVS)” value is on record as “slightly hygroscopic”. Also, the “DVS The weight gains by vapor sorption %” value is 0.8% in data set [3] (80% RH); 0.9% in data set [3] (90% RH); around 0.9% in data set [3] (90% RH, listed as free base crystalline form I). For the same compound, the “Purity in stability evaluation” value in data set [4] (0 d) came to 98.63 Area %; in data set [4] (7 d-40° C./75% RH) it was 98.60 Area %; in data set [4] (7 d-60° C./capped) it was 98.61 Area %; in data set [4] (14 d-40° C./75% RH), 98.61 Area %; in data set [4] (14 d-60° C./capped), 98.70 Area %. Besides, the “Solid state stability-14 days” value in data set [4] (60° C./Closed and 40° C./75% RH (Open), 14 days) was “physically and chemically stable”. For the same compound, the “XRPD in stability evaluation” value in data set [4] (7 d-40° C./75% RH), in data set [4] (7 d-60° C./capped), in data set [4] (14 d-40° C./75% RH) and in data set [4] (14 d-60° C./capped) was “unchanged” throughout.

On to `Cc1c(C#Cc2cnc3ccc(N4CCC(O)CC4)nn23)cccc1C(=O)Nc1cc(Cl)cc(C(F)(F)F)c1` [L-camphor sulfonate crystalline form II], for which, in data set [1], the “XPRD Results” value was “unchanged”. Besides, the “hygroscopicity (DVS)” value in data set [3] is recorded as “slightly hygroscopic”. Further, the “DVS The weight gains by vapor sorption %” value in data set [3] (80% RH) worked out at 0.8%; in data set [3] (90% RH), 1.2%.

As for `Cc1c(C#Cc2cnc3ccc(N4CCC(O)CC4)nn23)cccc1C(=O)Nc1cc(Cl)cc(C(F)(F)F)c1` [Mesylate crystalline form I], in data set [1], the “XPRD Results” value is “new crystalline form” and the “stability of crystalline form under high humidity conditions” value is on record as “unstable”.

Take `Cc1c(C#Cc2cnc3ccc(N4CCC(O)CC4)nn23)cccc1C(=O)Nc1cc(Cl)cc(C(F)(F)F)c1` [Oxalate crystalline form I]: the “XPRD Results” value in data set [1] is listed as “unchanged”.
